These are literature values, as cited in patent US10973875B2, “Medical agents and uses thereof” (LOKON PHARMA AB, priority 2014, dated 2021).

The conditions of this data set: patients treated with gemcitabine.

For `Nc1ccn([C@@H]2O[C@H](CO)[C@@H](O)C2(F)F)c(=O)n1` [gemcitabine], the “levels of TGF, Tregs and MDSCs” value is reported as “significantly lower levels”.
